Experimental data reported in PubChem BioAssay (NCI).
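Exposure lasted 48 hours, with cells grown in 96-well plates and compounds tested at five concentrations. TGI denotes the concentration required for complete inhibition of growth.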

Key:
Assay in all cases: inhibition of tumour cell growth, NCI panel, 48 h
SW-620 colon = test system: SW-620 colon
MOLT-4 leukemia = test system: MOLT-4 leukemia
NCI-H460 lung = test system: NCI-H460 lung
CCRF-CEM leukemia = test system: CCRF-CEM leukemia
ACHN renal = test system: ACHN renal
SN12C renal = test system: SN12C renal
SNB-19 CNS = test system: SNB-19 CNS
HOP-92 NSCLC = test system: HOP-92 NSCLC
UACC-257 melanoma = test system: UACC-257 melanoma
IGROV1 ovarian = test system: IGROV1 ovarian
DLD-1 colon = test system: DLD-1 colon
HCT-15 colon = test system: HCT-15 colon
OVCAR-4 ovarian = test system: OVCAR-4 ovarian
SK-MEL-2 melanoma = test system: SK-MEL-2 melanoma
SF-268 CNS = test system: SF-268 CNS
HT29 colon = test system: HT29 colon
OVCAR-3 ovarian = test system: OVCAR-3 ovarian
NCI-H522 lung = test system: NCI-H522 lung
K-562 leukemia = test system: K-562 leukemia
CAKI-1 renal = test system: CAKI-1 renal

Compound	TGI (SW-620 colon) [µM]	TGI (MOLT-4 leukemia) [µM]	TGI (NCI-H460 lung) [µM]	TGI (CCRF-CEM leukemia) [µM]	TGI (ACHN renal) [µM]	TGI (SN12C renal) [µM]	TGI (SNB-19 CNS) [µM]	TGI (HOP-92 NSCLC) [µM]	TGI (UACC-257 melanoma) [µM]	TGI (IGROV1 ovarian) [µM]	TGI (DLD-1 colon) [µM]	TGI (HCT-15 colon) [µM]	TGI (OVCAR-4 ovarian) [µM]	TGI (SK-MEL-2 melanoma) [µM]	TGI (SF-268 CNS) [µM]	TGI (HT29 colon) [µM]	TGI (OVCAR-3 ovarian) [µM]	TGI (NCI-H522 lung) [µM]	TGI (K-562 leukemia) [µM]	TGI (CAKI-1 renal) [µM]
CC(=O)OC1/C=C(\C)C(OC(C)=O)C/C=C(/C)CCC2C(/C=C/C1=O)C2(C)C (stereo unspecified)	> 100	> 100	> 100	> 100	> 100	> 100	> 100	> 100	> 100	> 100	> 100	> 100	> 100	> 100	> 100	> 100	> 100	> 100	–	–
NC(CCCCCP(=O)(c1ccccc1)C1C=CC=CC1)C(=O)O (stereo unspecified)	> 100	> 100	> 100	> 100	> 100	> 100	> 100	> 100	> 100	> 100	–	> 100	> 100	> 100	> 100	> 100	> 100	> 100	> 100	> 100
CCCC(=O)OCC1OC(n2ccc(N)nc2=O)C(OC(=O)CCC)C1OC(=O)CCC (stereo unspecified)	> 100	66.9	> 100	> 100	–	> 100	> 100	> 100	> 100	> 100	> 100	> 100	> 100	> 100	> 100	> 100	> 100	> 100	> 100	> 100
CC(C)Cc1ccc(C(C)C(=O)N2CCN(/C=C/c3ccccc3)CC2)cc1 (stereo unspecified)	30.3	23.4	32.9	37.1	–	30.8	22	26.1	31.4	28.7	27.3	27.5	25.6	27	32	28	25.9	25	29.3	–
COc1ccc(/C=C2\CCNC2=O)cc1	> 100	> 100	> 100	> 100	–	> 100	> 100	> 100	> 100	> 100	> 100	> 100	> 100	> 100	> 100	> 100	> 100	> 100	> 100	> 100
O=c1sc2ccccc2n1CC1CS1 (stereo unspecified)	> 100	> 100	> 100	> 100	> 100	> 100	> 100	> 100	–	> 100	–	> 100	> 100	> 100	> 100	> 100	> 100	> 100	> 100	> 100
O=C1c2cccc3c2C(=O)c2c(cccc21)OCCOCCOCCOCCO3	> 100	> 100	> 100	> 100	> 100	> 100	> 100	–	> 100	> 100	> 100	> 100	> 100	> 100	> 100	> 100	> 100	> 100	> 100	> 100
CCN(CC)CCNc1ccc2nnn3c4ccc(OCCN(CC)CC)cc4c(=O)c1c23	> 100	39	> 100	49	> 100	> 100	> 100	> 100	> 100	–	–	> 100	41.3	> 100	> 100	54.2	–	> 100	> 100	> 100
O=P(O)(O)CCP(=O)(O)O	> 100	> 100	> 100	> 100	> 100	> 100	> 100	> 100	> 100	> 100	–	> 100	> 100	> 100	> 100	> 100	> 100	> 100	> 100	> 100
CCOc1ncn(-c2ccc(NC(=S)Nc3ncccn3)cc2)n1	> 100	57.3	> 100	59.1	–	> 100	> 100	87	> 100	> 100	–	> 100	> 100	–	> 100	25.7	> 100	38.6	> 100	–
O=c1cc[nH]c(=O)[nH]1	> 1000	> 919	883	> 950	–	> 917	828	> 1000	> 1000	> 1000	> 1000	> 1000	> 1000	> 1000	> 1000	> 1000	> 1000	923	> 1000	> 920
